Results as given in patent US20230049231A1 (priority 2019, published 2023).

Key:
[1] = target: T1, Kv1.3 potassium channel (Homo sapiens, UniProt P22001); experiment: Kv1.3 potassium channel blocker activity, automated whole-cell patch clamp (Patchliner); format: cell-based; conditions: Kv1.3 potassium channel, whole-cell patch clamp
T1 construct: expressed in transfected cells
Summary of the method: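 IC50 came from Hill-equation fits of peak and AUC currents from the final pulse at each concentration, normalized to compound-free control. Compounds applied consecutively at 30 nM to 100 μM (up to 0.3% DMSO) to Kv1.3-expressing CHO-K1 cells, P/4 leak subtraction. Pulses were +40 mV, 100 ms, from −90 mV holding, at 0.1 Hz on Patchliner.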

[2] = target: T2, hERG channel (Homo sapiens, UniProt Q12809); experiment: hERG electrophysiology, automated whole-cell patch clamp (Patchliner); format: cell-based; conditions: hERG channel, whole-cell patch clamp
T2 construct: expressed in transfected cells
Summary of the method: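 Currents were recorded at 0.3 Hz from −80 mV, stepping to +20 mV then −50 mV (300 ms each), in stably transfected CHO-K1 cells. Concentrations (30 nM–100 μM, up to 0.3% DMSO) were added sequentially without washout. IC50 came from Hill fits of control-normalized AUC/peak of each train's final pulse.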

T1 sequence (P22001 whole entry): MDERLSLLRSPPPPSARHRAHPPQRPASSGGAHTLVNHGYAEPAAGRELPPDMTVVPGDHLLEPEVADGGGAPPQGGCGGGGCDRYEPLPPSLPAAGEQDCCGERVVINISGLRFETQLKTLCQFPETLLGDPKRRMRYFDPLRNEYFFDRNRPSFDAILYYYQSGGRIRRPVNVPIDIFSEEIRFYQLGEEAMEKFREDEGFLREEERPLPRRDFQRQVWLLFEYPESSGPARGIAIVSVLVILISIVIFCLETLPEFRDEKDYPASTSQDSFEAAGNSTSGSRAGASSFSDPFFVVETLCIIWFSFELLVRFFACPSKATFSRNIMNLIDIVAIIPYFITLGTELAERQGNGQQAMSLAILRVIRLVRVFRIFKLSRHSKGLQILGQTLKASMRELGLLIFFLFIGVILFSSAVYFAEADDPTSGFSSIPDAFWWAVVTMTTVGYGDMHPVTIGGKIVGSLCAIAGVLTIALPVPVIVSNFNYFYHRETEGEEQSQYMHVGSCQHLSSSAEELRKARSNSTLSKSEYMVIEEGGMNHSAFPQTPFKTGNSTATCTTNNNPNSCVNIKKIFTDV
T2 sequence (Q12809 whole entry): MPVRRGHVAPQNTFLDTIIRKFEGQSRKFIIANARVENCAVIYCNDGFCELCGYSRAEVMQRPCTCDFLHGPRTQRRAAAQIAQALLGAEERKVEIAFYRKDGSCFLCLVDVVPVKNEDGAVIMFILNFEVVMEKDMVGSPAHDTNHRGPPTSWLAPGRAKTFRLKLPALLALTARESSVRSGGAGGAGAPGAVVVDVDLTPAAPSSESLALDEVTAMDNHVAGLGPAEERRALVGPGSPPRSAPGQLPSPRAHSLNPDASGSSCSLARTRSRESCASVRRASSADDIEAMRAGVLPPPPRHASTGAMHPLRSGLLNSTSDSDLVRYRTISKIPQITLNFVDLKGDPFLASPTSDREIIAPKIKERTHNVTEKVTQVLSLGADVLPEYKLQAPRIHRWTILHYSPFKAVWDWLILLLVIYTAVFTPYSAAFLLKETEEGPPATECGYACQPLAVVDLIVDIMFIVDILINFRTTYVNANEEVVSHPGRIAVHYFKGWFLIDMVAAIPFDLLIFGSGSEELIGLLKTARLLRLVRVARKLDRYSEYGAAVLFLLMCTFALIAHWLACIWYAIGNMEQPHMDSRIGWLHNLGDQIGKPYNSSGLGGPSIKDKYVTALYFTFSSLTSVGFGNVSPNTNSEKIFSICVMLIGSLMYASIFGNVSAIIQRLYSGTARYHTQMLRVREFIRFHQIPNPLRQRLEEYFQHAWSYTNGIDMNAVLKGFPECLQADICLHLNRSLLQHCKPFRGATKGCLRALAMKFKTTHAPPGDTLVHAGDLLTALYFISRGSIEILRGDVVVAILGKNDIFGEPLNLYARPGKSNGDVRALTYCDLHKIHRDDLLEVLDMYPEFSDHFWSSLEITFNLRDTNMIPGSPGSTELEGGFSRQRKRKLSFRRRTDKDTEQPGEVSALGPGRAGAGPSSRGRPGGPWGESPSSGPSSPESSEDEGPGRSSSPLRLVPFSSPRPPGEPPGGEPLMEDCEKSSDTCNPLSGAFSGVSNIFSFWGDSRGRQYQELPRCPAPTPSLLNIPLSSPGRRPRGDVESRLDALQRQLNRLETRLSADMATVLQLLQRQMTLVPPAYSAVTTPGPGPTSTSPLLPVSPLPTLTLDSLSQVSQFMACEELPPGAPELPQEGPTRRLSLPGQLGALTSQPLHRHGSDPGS

| SMILES | IC50 [1] [µM] | IC50 [2] [µM] |
| --- | --- | --- |
| O=C1CN(C(CO)CO)C[C@@H]2C[C@H](c3c(O)ccc(Cl)c3Cl)CN12 [Compound 124, (7R,8aS)-7-(2,3-dichloro-6-hydroxyphenyl)-2-(1,3-dihydroxypropan-2-yl)-hexahydropyrrolo [1,2-a]pyrazin-4-one] | < 1 | > 30 |
| CC(CO)N1CC(=O)N2C[C@@H](c3c(O)ccc(Cl)c3Cl)C[C@H]2C1 (stereo partly drawn) [Compound 127, (7R,8aS)-7-(2,3-dichloro-6-hydroxyphenyl)-2-(1-hydroxypropan-2-yl)-hexahydropyrrolo [1,2-a]pyrazin-4-one] | < 1 | > 30 |
| O=C1CN(CC2CNC2)C[C@@H]2C[C@H](c3c(O)ccc(Cl)c3Cl)CN12 [Compound 128, (7R,8aS)-2-(azetidin-3-ylmethyl)-7-(2,3-dichloro-6-hydroxyphenyl)-hexahydropyrrolo [1,2-a]pyrazin-4-one] | < 1 | > 30 |
| O=C1CN(C2CNC2)C[C@@H]2C[C@H](c3c(O)ccc(Cl)c3Cl)CN12 [Compound 129, (7R,8aS)-2-(azetidin-3-yl)-7-(2,3-dichloro-6-hydroxyphenyl)-hexahydropyrrolo [1,2-a]pyrazin-4-one] | < 1 | > 30 |
| CN1CC(N2CC(=O)N3C[C@@H](c4c(O)ccc(Cl)c4Cl)C[C@H]3C2)C1 [Compound 132, (7R,8aS)-7-(2,3-dichloro-6-hydroxyphenyl)-2-(1-methylazetidin-3-yl)-hexahydropyrrolo [1,2-a]pyrazin-4-one] | < 1 | < 30 |
| O=C(CO)N1CC(N2CC(=O)N3C[C@@H](c4c(O)ccc(Cl)c4Cl)C[C@H]3C2)C1 [Compound 133, (7R,8aS)-7-(2,3-dichloro-6-hydroxyphenyl)-2-[1-(2-hydroxyacetyl)azetidin-3-yl]-hexahydropyrrolo [1,2-a]pyrazin-4-one] | < 1 | > 30 |
| O=C1CN(C2CN(CCO)C2)C[C@@H]2C[C@H](c3c(O)ccc(Cl)c3Cl)CN12 [Compound 134, (7R,8aS)-7-(2,3-dichloro-6-hydroxyphenyl)-2-[1-(2-hydroxyethyl)azetidin-3-yl]-hexahydropyrrolo [1,2-a]pyrazin-4-one] | < 1 | > 30 |
| O=C1CN(C2CCNCC2)C[C@@H]2C[C@H](c3c(O)ccc(Cl)c3Cl)CN12 [Compound 141, (7R,8aS)-7-(2,3-dichloro-6-hydroxyphenyl)-2-(piperidin-4-yl)-hexahydropyrrolo [1,2-a]pyrazin-4-one] | < 1 | > 30 |
| O=C1CN([C@H]2CCNC2)C[C@@H]2C[C@H](c3c(O)ccc(Cl)c3Cl)CN12 [Compound 142, (7R,8aS)-7-(2,3-dichloro-6-hydroxyphenyl)-2-[(3S)-pyrrolidin-3-yl]-hexahydropyrrolo [1,2-a]pyrazin-4-one] | < 1 | > 30 |
| O=C1CN([C@@H]2CCNC2)C[C@@H]2C[C@H](c3c(O)ccc(Cl)c3Cl)CN12 [Compound 143, (7R,8aS)-7-(2,3-dichloro-6-hydroxyphenyl)-2-[(3R)-pyrrolidin-3-yl]-hexahydropyrrolo [1,2-a]pyrazin-4-one] | < 1 | > 30 |
| O=C1CN(C[C@@H]2COCCN2)C[C@@H]2C[C@H](c3c(O)ccc(Cl)c3Cl)CN12 [Compound 144, (7R,8aS)-7-(2,3-dichloro-6-hydroxyphenyl)-2-[(3R)-morpholin-3-ylmethyl]-hexahydropyrrolo [1,2-a]pyrazin-4-one] | < 1 | > 30 |
| O=C1CN(C[C@H]2COCCN2)C[C@@H]2C[C@H](c3c(O)ccc(Cl)c3Cl)CN12 [Compound 145, (7R,8aS)-7-(2,3-dichloro-6-hydroxyphenyl)-2-[(3S)-morpholin-3-ylmethyl]-hexahydropyrrolo [1,2-a]pyrazin-4-one] | < 1 | < 30 |
| O=C1CN(C[C@@H]2CNCCO2)C[C@@H]2C[C@H](c3c(O)ccc(Cl)c3Cl)CN12 [Compound 146, (7R,8aS)-7-(2,3-dichloro-6-hydroxyphenyl)-2-[(2S)-morpholin-2-ylmethyl]-hexahydropyrrolo [1,2-a]pyrazin-4-one] | < 1 | > 30 |
| O=C1CN(C[C@H]2CNCCO2)C[C@@H]2C[C@H](c3c(O)ccc(Cl)c3Cl)CN12 [Compound 147, (7R,8aS)-7-(2,3-dichloro-6-hydroxyphenyl)-2-[(2R)-morpholin-2-ylmethyl]-hexahydropyrrolo [1,2-a]pyrazin-4-one] | < 1 | > 30 |
| CC(C)(O)CN1CC(=O)N2C[C@@H](c3c(O)ccc(Cl)c3Cl)C[C@H]2C1 [Compound 148, (7R,8aS)-7-(2,3-dichloro-6-hydroxyphenyl)-2-(2-hydroxy-2-methylpropyl)-hexahydropyrrolo[1,2-a]pyrazin-4-one] | < 1 | > 30 |
| O=C1CN(C2COCC2O)C[C@@H]2C[C@H](c3c(O)ccc(Cl)c3Cl)CN12 (stereo partly drawn) [Compound 149, (7R,8aS)-7-(2,3-dichloro-6-hydroxyphenyl)-2-(4-hydroxyoxolan-3-yl)-hexahydropyrrolo[1,2-a]pyrazin-4-one] | < 1 | > 30 |

| SMILES | IC50 [1] [µM] | IC50 [2] [µM] |
| --- | --- | --- |
| COC(CO)CN1CC(=O)N2C[C@@H](c3c(O)ccc(Cl)c3Cl)C[C@H]2C1 (stereo partly drawn) [Compound 156, (7R,8aS)-7-(2,3-dichloro-6-hydroxyphenyl)-2-(3-hydroxy-2-methoxypropyl) hexahydropyrrolo[1,2-a]pyrazin-4-one] | < 1 | > 30 |
| O=C1CN(CC2(O)CNC2)C[C@@H]2C[C@H](c3c(O)ccc(Cl)c3Cl)CN12 [Compound 157, (7R,8aS)-7-(2,3-dichloro-6-hydroxyphenyl)-2-[(3-hydroxyazetidin-3-yl)methyl]-hexahydropyrrolo[1,2-a]pyrazin-4-one;] | < 1 | > 30 |
| CC(CO)(CO)N1CC(=O)N2C[C@@H](c3c(O)ccc(Cl)c3Cl)C[C@H]2C1 [Compound 162, (7R,8aS)-7-(2,3-dichloro-6-hydroxyphenyl)-2-(1,3-dihydroxy-2-methylpropan-2-yl)-hexahydropyrrolo[1,2-a]pyrazin-4-one] | < 1 | > 30 |
| CC1(CN2CC(=O)N3C[C@@H](c4c(O)ccc(Cl)c4Cl)C[C@H]3C2)CNC1 [Compound 167, (7R,8aS)-7-(2,3-dichloro-6-hydroxyphenyl)-2-[(3-methylazetidin-3-yl)methyl]-hexahydropyrrolo[1,2-a]pyrazin-4-one] | < 1 | > 30 |
| O=C1CN(c2ccnc(CO)n2)C[C@@H]2C[C@H](c3c(O)ccc(Cl)c3Cl)CN12 [Compound 169, (7R,8aS)-7-(2,3-dichloro-6-hydroxyphenyl)-2-[2-(hydroxymethyl)pyrimidin-4-yl]-hexahydropyrrolo[1,2-a]pyrazin-4-one] | < 1 | > 30 |
| Nc1ccnc(N2CC(=O)N3C[C@@H](c4c(O)ccc(Cl)c4Cl)C[C@H]3C2)c1 [Compound 171, (7R,8aS)-2-(4-aminopyridin-2-yl)-7-(2,3-dichloro-6-hydroxyphenyl)-hexahydropyrrolo[1,2-a]pyrazin-4-one] | < 1 | < 10 |
| O=C1CN(c2cnc(CO)cn2)C[C@@H]2C[C@H](c3c(O)ccc(Cl)c3Cl)CN12 [Compound 172] | < 1 | < 30 |
| O=C1CN(c2cc(CO)ccn2)C[C@@H]2C[C@H](c3c(O)ccc(Cl)c3Cl)CN12 [Compound 173] | < 1 | < 30 |
| O=C1CN(c2ncn[nH]2)C[C@@H]2C[C@H](c3c(O)ccc(Cl)c3Cl)CN12 [Compound 175, (7R,8aS)-7-(2,3-dichloro-6-hydroxyphenyl)-2-(1H-1,2,4-triazol-5-yl)hexahydropyrrolo[1,2-a]pyrazin-4(1H)-one] | < 1 | > 30 |
| O=C1CN(c2ncc[nH]2)C[C@@H]2C[C@H](c3c(O)ccc(Cl)c3Cl)CN12 [Compound 176, (7R,8aS)-7-(2,3-dichloro-6-hydroxyphenyl)-2-(1H-imidazol-2-yl)-hexahydropyrrolo[1,2-a]pyrazin-4-one] | < 1 | < 30 |
| NCC1OC[C@@H]2C[C@H](c3c(O)ccc(Cl)c3Cl)CCN2C1=O (stereo partly drawn) [Compound 180, (8R,9aS)-3-(aminomethyl)-8-(2,3-dichloro-6-hydroxyphenyl)-hexahydro-1H-pyrido[2,1-c][1,4]oxazin-4-one] | < 1 | < 30 |
| O=C1C(CN2CCCC2)OC[C@@H]2C[C@H](c3c(O)ccc(Cl)c3Cl)CCN12 (stereo partly drawn) [Compound 181, (8R,9aS)-8-(2,3-dichloro-6-hydroxyphenyl)-3-(pyrrolidin-1-ylmethyl)-hexahydro-1H-pyrido[2,1-c][1,4]oxazin-4-one] | < 1 | < 10 |
| CNCC1OC[C@@H]2C[C@H](c3c(O)ccc(Cl)c3Cl)CCN2C1=O (stereo partly drawn) [Compound 182, (8R,9aS)-8-(2,3-dichloro-6-hydroxyphenyl)-3-[(methylamino)methyl]-hexahydro-1H-pyrido[2,1-c][1,4]oxazin-4-one] | < 1 | < 30 |
| O=C1C(CN2CC(O)C2)OC[C@@H]2C[C@H](c3c(O)ccc(Cl)c3Cl)CCN12 (stereo partly drawn) [Compound 183, (8R,9aS)-8-(2,3-dichloro-6-hydroxyphenyl)-3-[(3-hydroxyazetidin-1-yl)methyl]-hexahydro-1H-pyrido[2,1-c][1,4]oxazin-4-one] | < 1 | < 30 |
| O=C(CO)NCC1OC[C@@H]2C[C@H](c3c(O)ccc(Cl)c3Cl)CCN2C1=O (stereo partly drawn) [Compound 185, N-[[(8R,9aS)-8-(2,3-dichloro-6-hydroxyphenyl)-4-oxo-hexahydro-1H-pyrido[2,1-c][1,4]oxazin-3-yl]methyl]-2-hydroxyacetamide] | < 1 | > 30 |
